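96-well plates; 48 h exposure; 5 concentrations. Endpoints by linear interpolation between flanking doses. Not reached: highest tested concentration assigned. GI50: concentration for 50% inhibition of growth. TGI marks complete inhibition of growth.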
Legend:
Assay in all cases: NCI anticancer screen, dose series, 48 h
T-47D breast = system: T-47D breast
LXFL 529 NSCLC = system: LXFL 529 NSCLC
RXF-631 renal = system: RXF-631 renal

Row | SMILES | GI50 (T-47D breast) [µM] | TGI (T-47D breast) [µM] | TGI (LXFL 529 NSCLC) [µM] | TGI (RXF-631 renal) [µM]
1 | Nc1nc(Cl)cc(OCC2(CO)CC(OCc3ccccc3)C2)n1 (stereo not given) | 18.9 | 92.3 | – | –
2 | N=C(N)c1ccc(-c2ccc(-c3ccccc3)s2)cc1 | 1.83 | 4.79 | – | –
3 | CC(=O)Oc1ccc2c(c1)oc1c3ccc(OC(C)=O)cc3n(C)c(=O)c21 | – | > 100 | – | –
4 | O=C1C=CC2=[N+]([O-])C(c3ccccc3)(c3ccccc3)C(=Nc3ccccc3)C2=C1 | – | – | 3.36 | 11.1
5 | Cc1cc(C)c2c(c1)CC1(Cc3c(C)ccc(C)c3C1=O)C2=O (stereo not given) | – | > 100 | – | –
6 | CCNc1nnc(-c2nsc3ccccc23)s1 | – | – | > 100 | –
7 | Cc1ccc([N+](=O)[O-])cc1S(=O)(=O)Nc1ccc(C2=NNC(c3ccccc3O)C2)cc1 (stereo not given) | – | 72.4 | – | –

From PubChem BioAssay (NCI)
